# Read-outs that look alike come from different tables or passages of the source.
# What was measured:
# [1] = system: diet-induced MetS model; experiment: In vivo diet-induced (high-fructose high-fat) MetS model; set-up: species or system Sprague–Dawley male rats; settings: MetS rats, 10 mg/kg p.o. for 14 days, vs untreated group; for effect on glucose levels / effect on total cholesterol levels / effect on triglyceride levels / effect on body weight: HFHF diet; for effect on glucose levels / effect on total cholesterol levels / effect on triglyceride levels: serum; for effect on triglycerides and glucose (TyG) index: TyG = Ln(triglyceride x glucose/2)
# Experimental: In the diet-induced model, MetS was generated through 12 weeks of the consumption of a high-fructose high-fat (HFHF) diet per the previous experience in our group. The control group received a standard diet during the same period. After this induction phase, the animals of the standard diet were randomly allocated into two groups; one group (C/treated groups) would receive treatment with compounds 2, 3, or 4 for 14 days (10 mg/kg, p.o.), and the other group would receive no treatment (C groups). The same allocation was made for the diet-induced MetS group (the MetS group received no treatment, while MetS/treated groups received compound 2, 3, or 4, 10 mg/kg, p.o. for 14 days), as depicted in Figure 4.
# For the in vivo experimentation, eighty Sprague–Dawley male rats weighing 250 ± 25 g were housed in acrylic boxes and treated following the recommendations and requirements of the NOM-062-ZOO-1999 (Official Mexican Standard for the Production, Care, and Use of Laboratory Animals). They were kept in a clear-air room maintained on an artificial 12 h light/dark cycle and were given ad libitum access to food and water. The protocol was approved by the Institutional Subcommittee for the Care and Use of Laboratory Animals (SICUAL) with the registration number FMM/SICUAL/006/2017 (date of approval, 30 August 2017).
# The animals were randomly allocated to a group (control groups) that was fed on a regular Chow commercial diet (Purina-Rodent Laboratory Chow-5001 3.310 kcal/g) or to a group (MetS groups) that was supplied with a high-fructose and high-fat diet (4.161 kcal/g) for the generation of MetS. From our own experience, MetS is established after twelve weeks with this diet. The weight of each animal was recorded at the beginning of the study and every week after the completion of the induction period. In weeks nine and twelve, the glucose, total cholesterol, and triglyceride levels were monitored in fasting conditions of 12 h, using an Accutrend plus monitor (Roche). Following the MetS induction phase, the control and MetS groups were rearranged into the following groups: (1) control (CM, regular diet + no treatment n = 10); (2) MetS (HFHF diet + no treatment, n = 10); (3) control + compound 2 (C/2 regular diet + treatment with 2, n = 10); (4) MetS + compound 2 (MetS/2, HFHF diet + treatment with 2, n = 10); (5) control + compound 3 (C/3, regular diet + treatment with […], n = 10); (6) MetS + compound 3 (MetS/3, HFHF diet + treatment with 3, n = 10); (7) control + compound 4 (C/4, regular diet + treatment with 4, n = 10); (8) MetS + compound 4 (MetS/4, HFHF diet + treatment with 4, n = 10). The treatment stage lasted 14 days, and the animals retained the same diet they had during the induction to exclude the effect of diet change. All the animals received 100 μL of a 1% Kolliphor EL mixture in water with or without the tested compound (10 mg/Kg) via nasogastric. Animals were sacrificed by decapitation. The blood was collected and centrifuged at 1372× g for 15 min at 4 °C. The serum was gathered and stored at −80 °C until the determination of metabolic parameters.
# The animals’ serum was defrosted, and triacylglyceride, cholesterol, and glucose levels were determined on an Architect c8000 system (Abbott, Wiesbaden, Germany). Statistical analysis was performed using one-way ANOVA, followed by Dunnett’s multiple comparisons tests employing GraphPad Prism version 9.4.1 (GraphPad Software, La Jolla, CA, USA). Differences were considered significant when p ≤ 0.05.
# [2] = biological target: T1, HMG-CoA reductase (Homo sapiens, UniProt P04035); experiment: In vitro HMG-CoA reductase inhibition (HMG-CoA Reductase Assay Kit, Sigma-Aldrich CS1090); type: biochemical; settings: for inhibition at 20 µM: initial screening, read-out: inhibition of HMG-CoA reductase enzymatic activity
# T1 construct: purchased Sigma-Aldrich CS1090
# T1 sequence (P04035 426-888 limits assumed): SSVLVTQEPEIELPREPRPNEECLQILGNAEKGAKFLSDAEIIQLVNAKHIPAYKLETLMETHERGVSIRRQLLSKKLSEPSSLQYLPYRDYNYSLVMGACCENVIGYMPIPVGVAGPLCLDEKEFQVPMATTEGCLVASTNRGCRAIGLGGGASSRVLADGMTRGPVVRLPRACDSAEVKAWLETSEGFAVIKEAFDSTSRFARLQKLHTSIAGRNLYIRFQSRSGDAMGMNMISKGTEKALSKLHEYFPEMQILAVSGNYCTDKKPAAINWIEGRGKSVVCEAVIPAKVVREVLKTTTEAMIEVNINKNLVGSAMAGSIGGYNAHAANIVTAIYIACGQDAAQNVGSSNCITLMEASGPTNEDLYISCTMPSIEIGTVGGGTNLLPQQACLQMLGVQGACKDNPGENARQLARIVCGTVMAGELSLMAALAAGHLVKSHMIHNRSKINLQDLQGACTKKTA
# Experimental: (§1) The HMG-CoA Reductase Assay Kit from Sigma-Aldrich (catalog number CS1090, St. Louis, MO, USA) was used to determine the inhibitory properties of compounds 3 and 4 over enzyme activity, using the instructions provided by the fabricant. […] For IC50 determination of compound 3, final concentrations of 2.5, 5.0, 10.0, and 20 μM were employed by triplicate. The Total Antioxidant Capacity Assay Kit from Sigma-Aldrich (catalog number MAK187, St. Louis, MO, USA) was used for the determination of in vitro antioxidant activity following the manufacturer’s instructions by triplicate.
# [3] = Total antioxidant capacity, CUPRAC assay (Trolox equivalent antioxidant capacity); settings: triplicate
# Experimental: as §1
# [4] = system: diet-induced MetS model; set-up: method as in PMID 34577613; settings: in vivo diet-induced MetS model, previous study ref 38; cited from earlier work
# [5] = set-up: method as in PMID 20072920; settings: CUPRAC; cited from earlier work
# [6] = biological target: T1, HMG-CoA reductase; set-up: method as in earlier work; settings: same commercial kit, ref 73 (Mendieta et al.); cited from earlier work
compound,measurement,setting,value
COc1ccc(C(=O)Nc2ccccc2C(=O)NCc2ccc(C(F)(F)F)cc2)cc1OC [Compound 2],effect on glucose levels,[1],did not affect
same,effect on total cholesterol levels,[1],did not affect
same,effect on triglyceride levels,[1],did not affect
same,effect on body weight,[1],did not affect
"COc1ccc(C(=O)Nc2ccc(NC(=O)c3ccc(OC)c(OC)c3)c(C(=O)O)c2)cc1OC [Compound 3, 2,5-Bis(3,4-dimethoxybenzamido)benzoic Acid]",effect on triglycerides and glucose (TyG) index,[1],decrease
same,effect on glucose levels,[1],reduced
same,effect on total cholesterol levels,[1],reduced
same,effect on triglyceride levels,[1],reduced
same,effect on body weight,[1],reduced
same,inhibition at 20 µM,[2],94%
same,IC50,"[2]; concentrations 2.5, 5.0, 10.0 and 20 μM, triplicate",8.89 ± 0.51 µM
same,TEAC (Trolox equivalent antioxidant capacity),[3],1.01 ± 0.06
COc1ccc(C(=O)Nc2ccc(NC(=O)c3ccc(OC)c(OC)c3)c(C(=O)NCc3ccc(C(F)(F)F)cc3)c2)cc1OC [Compound 1],effect on blood pressure,[4],diminished
same,effect on glucose serum levels,[4],diminished
same,effect on total cholesterol serum levels,[4],diminished
O=C(O[C@@H]1Cc2c(O)cc(O)cc2O[C@@H]1c1ccc(O)c(O)c1)c1cc(O)c(O)c(O)c1 [epicatechin gallate],TEAC (Trolox equivalent antioxidant capacity),[5],above 3.0
C/C=C/c1cc(OC)c(OC)cc1OC [α-asarone],IC50,[6],5.86 µM
COc1cc(/C=C/C(=O)O)ccc1O [ferulic acid],TEAC (Trolox equivalent antioxidant capacity),[5],1.20
O=c1c(O)c(-c2ccc(O)c(O)c2)oc2cc(O)cc(O)c12 [quercetin],TEAC (Trolox equivalent antioxidant capacity),[5],above 3.0
"COc1ccc(/C=C/C(=O)Nc2ccc(NC(=O)/C=C/c3ccc(OC)c(OC)c3)c(C(=O)NCc3ccc(C(F)(F)F)cc3)c2)cc1OC [Compound 4, (2E,2′E)-N,N′-(2-((4-(Trifluoromethyl)benzyl)carbamoyl)-1,4-phenylene)bis(3-(3,4-dimethoxyphenyl)acrylamide)]",effect on triglycerides and glucose (TyG) index,[1],decrease
same,effect on total cholesterol levels,[1],not significant
same,effect on body weight,[1],not significant
same,inhibition at 20 µM,[2],46%
same,TEAC (Trolox equivalent antioxidant capacity),[3],1.33 ± 0.04
same,melting point,,> 250 °C

# Source: article PMC9784827, “In Combo Studies for the Optimization of 5-Aminoanthranilic Acid Derivatives as Potential Multitarget Drugs for the Management of Metabolic Syndrome” (Pharmaceuticals, 2022)
